Laboratory results reported in patent US9693556B2, “Herbicidal pyridazinone derivatives” (SYNGENTA LIMITED, priority 2011, dated 2017).

Tests used:
Type in all cases: in vivo
[1] = system: Alopecurus myosuroides (ALOMY); assay: Pre-emergence herbicidal glasshouse test on Alopecurus myosuroides; conditions: pre-emergence, 1000 g/h, evaluated after 13 days; for herbicidal damage, PRE Application ALOMY: five point scale
In short: (§1)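 Application rate 1000 g/h, formulated in acetone/water (50:50) with 0.5% Tween 20 and sprayed onto pots sown 1 day (pre-emergence) or 8 days (post-emergence) earlier. Evaluation at 13 days rated damage from 1 (0-19%) to 5 (80-100%).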

Setaria faberi (SETFA) [2] = assay: Pre-emergence herbicidal glasshouse test on Setaria faberi; conditions: pre-emergence, 1000 g/h, evaluated after 13 days; for herbicidal damage, PRE Application SETFA: five point scale
In short: as §1

[3] = system: Echinochloa crus-galli (ECHCG); assay: Pre-emergence herbicidal glasshouse test on Echinochloa crus-galli; conditions: pre-emergence, 1000 g/h, evaluated after 13 days; for herbicidal damage, PRE Application ECHCG: five point scale
In short: as §1

Solanum nigrum (SOLNI) [4] = assay: Pre-emergence herbicidal glasshouse test on Solanum nigrum; conditions: pre-emergence, 1000 g/h, evaluated after 13 days; for herbicidal damage, PRE Application SOLNI: five point scale
In short: as §1

[5] = system: Amaranthus retoflexus (AMARE); assay: Pre-emergence herbicidal glasshouse test on Amaranthus retoflexus; conditions: pre-emergence, 1000 g/h, evaluated after 13 days; for herbicidal damage, PRE Application AMARE: five point scale
In short: as §1

[6] = system: Ipomoea hederacea (IPOHE); assay: Pre-emergence herbicidal glasshouse test on Ipomoea hederacea; conditions: pre-emergence, 1000 g/h, evaluated after 13 days; for herbicidal damage, PRE Application IPOHE: five point scale
In short: as §1

[7] = system: Alopecurus myosuroides (ALOMY); assay: Post-emergence herbicidal glasshouse test on Alopecurus myosuroides; conditions: post-emergence, 1000 g/h, evaluated after 13 days; for herbicidal damage, POST Application ALOMY: five point scale
In short: as §1

Setaria faberi (SETFA) [8] = assay: Post-emergence herbicidal glasshouse test on Setaria faberi; conditions: post-emergence, 1000 g/h, evaluated after 13 days; for herbicidal damage, POST Application SETFA: five point scale
In short: as §1

[9] = system: Echinochloa crus-galli (ECHCG); assay: Post-emergence herbicidal glasshouse test on Echinochloa crus-galli; conditions: post-emergence, 1000 g/h, evaluated after 13 days; for herbicidal damage, POST Application ECHCG: five point scale
In short: as §1

Solanum nigrum (SOLNI) [10] = assay: Post-emergence herbicidal glasshouse test on Solanum nigrum; conditions: post-emergence, 1000 g/h, evaluated after 13 days; for herbicidal damage, POST Application SOLNI: five point scale
In short: as §1

[11] = system: Amaranthus retoflexus (AMARE); assay: Post-emergence herbicidal glasshouse test on Amaranthus retoflexus; conditions: post-emergence, 1000 g/h, evaluated after 13 days; for herbicidal damage, POST Application AMARE: five point scale
In short: as §1

[12] = system: Ipomoea hederacea (IPOHE); assay: Post-emergence herbicidal glasshouse test on Ipomoea hederacea; conditions: post-emergence, 1000 g/h, evaluated after 13 days; for herbicidal damage, POST Application IPOHE: five point scale
In short: as §1

Compound | PRE Application ALOMY herbicidal damage (five point scale) [1] | PRE Application SETFA herbicidal damage (five point scale) (Setaria faberi (SETFA) [2]) | PRE Application ECHCG herbicidal damage (five point scale) [3] | PRE Application SOLNI herbicidal damage (five point scale) (Solanum nigrum (SOLNI) [4]) | PRE Application AMARE herbicidal damage (five point scale) [5] | PRE Application IPOHE herbicidal damage (five point scale) [6] | POST Application ALOMY herbicidal damage (five point scale) [7] | POST Application SETFA herbicidal damage (five point scale) (Setaria faberi (SETFA) [8]) | POST Application ECHCG herbicidal damage (five point scale) [9] | POST Application SOLNI herbicidal damage (five point scale) (Solanum nigrum (SOLNI) [10]) | POST Application AMARE herbicidal damage (five point scale) [11] | POST Application IPOHE herbicidal damage (five point scale) [12] | herbicidal damage, PRE Application ALOMY [1] | herbicidal damage, PRE Application SETFA (Setaria faberi (SETFA) [2]) | herbicidal damage, PRE Application ECHCG [3] | herbicidal damage, PRE Application SOLNI (Solanum nigrum (SOLNI) [4]) | herbicidal damage, PRE Application AMARE [5] | herbicidal damage, PRE Application IPOHE [6] | herbicidal damage, POST Application ALOMY [7] | herbicidal damage, POST Application SETFA (Setaria faberi (SETFA) [8]) | also measured
COCn1ncc(-c2ccccc2S(C)(=O)=O)c(O)c1=O [Compound 1.144] | 5 (5=80-100% damage) | 4 (4=60-79% damage) | 5 (5=80-100% damage) | 5 (5=80-100% damage) | 5 (5=80-100% damage) | 4 (4=60-79% damage) | 5 (5=80-100% damage) | 5 (5=80-100% damage) | 5 (5=80-100% damage) | 5 (5=80-100% damage) | 5 (5=80-100% damage) | 5 (5=80-100% damage) | – | – | – | – | – | – | – | – | –
COCn1ncc(-c2ccccc2[S+](C)[O-])c(O)c1=O (stereo not drawn) [Compound 1.145] | 1 (1=0-19% damage) | 2 (2=20-39% damage) | 4 (4=60-79% damage) | 2 (2=20-39% damage) | 5 (5=80-100% damage) | 1 (1=0-19% damage) | 3 (3=40-59% damage) | 5 (5=80-100% damage) | 5 (5=80-100% damage) | 5 (5=80-100% damage) | 5 (5=80-100% damage) | 5 (5=80-100% damage) | – | – | – | – | – | – | – | – | –
COCn1ncc(-c2ccc(C(F)(F)F)cc2[S+](C)[O-])c(O)c1=O (stereo not drawn) [Compound 1.146] | 4 (4=60-79% damage) | 2 (2=20-39% damage) | 5 (5=80-100% damage) | 5 (5=80-100% damage) | 5 (5=80-100% damage) | 4 (4=60-79% damage) | 5 (5=80-100% damage) | 5 (5=80-100% damage) | 5 (5=80-100% damage) | 5 (5=80-100% damage) | 5 (5=80-100% damage) | 5 (5=80-100% damage) | – | – | – | – | – | – | – | – | –
Cn1ncc(-c2cccn(-c3cccc([N+](=O)[O-])c3)c2=O)c(O)c1=O [Compound 1.147] | 1 (1=0-19% damage) | 2 (2=20-39% damage) | 1 (1=0-19% damage) | 1 (1=0-19% damage) | 2 (2=20-39% damage) | 1 (1=0-19% damage) | 1 (1=0-19% damage) | 1 (1=0-19% damage) | 1 (1=0-19% damage) | 3 (3=40-59% damage) | 1 (1=0-19% damage) | 1 (1=0-19% damage) | – | – | – | – | – | – | – | – | –
Cn1ncc(-c2cccn(-c3cccc(F)c3)c2=O)c(O)c1=O [Compound 1.148] | 1 (1=0-19% damage) | 1 (1=0-19% damage) | 1 (1=0-19% damage) | 1 (1=0-19% damage) | 1 (1=0-19% damage) | 2 (2=20-39% damage) | 1 (1=0-19% damage) | 4 (4=60-79% damage) | 2 (2=20-39% damage) | 3 (3=40-59% damage) | 2 (2=20-39% damage) | 3 (3=40-59% damage) | – | – | – | – | – | – | – | – | –
Cn1ncc(-c2c(F)cnc(F)c2F)c(O)c1=O [Compound 1.149] | 1 (1=0-19% damage) | 1 (1=0-19% damage) | 1 (1=0-19% damage) | 1 (1=0-19% damage) | 1 (1=0-19% damage) | 1 (1=0-19% damage) | 2 (2=20-39% damage) | 1 (1=0-19% damage) | 1 (1=0-19% damage) | 4 (4=60-79% damage) | 4 (4=60-79% damage) | 1 (1=0-19% damage) | – | – | – | – | – | – | – | – | –
COc1nccc(-c2cnn(C)c(=O)c2O)c1Cl [Compound 1.150] | – | – | – | – | – | – | – | – | – | – | – | – | 1 (1=0-19% damage) | 1 (1=0-19% damage) | 1 (1=0-19% damage) | 1 (1=0-19% damage) | 2 (2=20-39% damage) | 2 (2=20-39% damage) | 1 (1=0-19% damage) | 1 (1=0-19% damage) | herbicidal damage, POST Application ECHCG [9]: 1 (1=0-19% damage); herbicidal damage, POST Application SOLNI (Solanum nigrum (SOLNI) [10]): 4 (4=60-79% damage); herbicidal damage, POST Application AMARE [11]: 1 (1=0-19% damage); herbicidal damage, POST Application IPOHE [12]: 1 (1=0-19% damage)
Cc1nc2nc(C(F)(F)F)c(-c3cnn(C)c(=O)c3O)cc2cc1F [Compound 1.151] | – | – | – | – | – | – | – | – | – | – | – | – | 2 (2=20-39% damage) | 2 (2=20-39% damage) | 5 (5=80-100% damage) | 4 (4=60-79% damage) | 5 (5=80-100% damage) | 5 (5=80-100% damage) | 5 (5=80-100% damage) | 5 (5=80-100% damage) | herbicidal damage, POST Application ECHCG [9]: 5 (5=80-100% damage); herbicidal damage, POST Application SOLNI (Solanum nigrum (SOLNI) [10]): 5 (5=80-100% damage); herbicidal damage, POST Application AMARE [11]: 5 (5=80-100% damage); herbicidal damage, POST Application IPOHE [12]: 5 (5=80-100% damage)
Cn1ncc(-c2cccn(-c3cccc(C(F)(F)F)c3)c2=O)c(O)c1=O [Compound 1.152] | – | – | – | – | – | – | – | – | – | – | – | – | 4 (4=60-79% damage) | 5 (5=80-100% damage) | 2 (2=20-39% damage) | 2 (2=20-39% damage) | 2 (2=20-39% damage) | 1 (1=0-19% damage) | 1 (1=0-19% damage) | 1 (1=0-19% damage) | herbicidal damage, POST Application ECHCG [9]: 1 (1=0-19% damage); herbicidal damage, POST Application SOLNI (Solanum nigrum (SOLNI) [10]): 1 (1=0-19% damage); herbicidal damage, POST Application AMARE [11]: 1 (1=0-19% damage); herbicidal damage, POST Application IPOHE [12]: 2 (2=20-39% damage)
